# Read-outs that look alike come from different tables or passages of the source. Marks after values point to notes of the source that are not given here.
# Key:
# [1] = DPPH radical-scavenging assay; conditions: mean ± SD of three experiments
# Method: The DPPH radical-scavenging activity was assessed by the method previously described.
# [2] = ABTS radical assay; conditions: mean ± SD of three experiments
# Method: The antioxidant activity by ABTS was assessed according to the method previously described.
# [3] = tested on: S. aureus; conditions: cited from earlier work
# [4] = tested on: Enterococcus faecalis ATCC 29212; assay: Antibacterial MIC, INT microdilution; format: cell-based; conditions: ATCC29212, read-out: MIC Ef
# Method: (§1) The six bacterial strains included: Pseudomonas aeruginosa ATCC 27853, Bacillus cereus ATCC 14579, Staphylococcus aureus ATCC 29213, Escherichia coli ATCC 25922, Salmonella typhimurium ATCC 14028 and Enterococcus faecalis ATCC 29212. The antimicrobial activity was evaluated by determining the minimal inhibitory concentration (MIC) by the rapid p-iodonitrotetrazolium violet (INT) microdilution method as previously described.
# [5] = tested on: Staphylococcus aureus ATCC 29213; assay: Antibacterial MIC, INT microdilution; format: cell-based; conditions: ATCC29213, read-out: MIC Sa
# Method: as §1
# [6] = tested on: Bacillus cereus ATCC 14579; assay: Antibacterial MIC, INT microdilution; format: cell-based; conditions: ATCC14579, read-out: MIC Bc
# Method: as §1
# [7] = tested on: Salmonella typhimurium ATCC 14028; assay: Antibacterial MIC, INT microdilution; format: cell-based; conditions: Salmonella enterica, read-out: MIC St
# Method: as §1
# [8] = tested on: Escherichia coli ATCC 25922; assay: Antibacterial MIC, INT microdilution; format: cell-based; conditions: ATCC25922, read-out: MIC Ec
# Method: as §1
# [9] = tested on: Pseudomonas aeruginosa ATCC 27853; assay: Antibacterial MIC, INT microdilution; format: cell-based; conditions: ATCC27853, read-out: MIC Pa
# Method: as §1
# [10] = tested on: THP-1 cells; assay: MTT cytotoxicity assay, cancer cells; format: cell-based; conditions: Homo sapiens, THP-1, read-out: THP-1 LC50
# Method: (§2) Cancer cell lines including human monocytic THP-1 and murine macrophage RAW 264.7 cells and the normal mammalian Vero monkey kidney cell line were obtained from the American Type Culture Collection (Rockville, MD, USA). They were maintained in DMEM under standard cell culture conditions at 37 °C and 5% CO2 in a humidified environment.
# (§3) The 3-(4,5-dimethylthiazol-2-yl)-2,5-diphenyltetrazolium bromide (MTT) assay was used to determine the cytotoxicity of the compounds as previously described. The selectivity index (SI) values to identify selective anti-cancer cell activity were calculated by dividing the LC50 values of normal Vero cells by the LC50 of cancer cells.
# [11] = tested on: RAW 264.7 cells; assay: MTT cytotoxicity assay, cancer cells; format: cell-based; conditions: Mus musculus, RAW264.7, read-out: RAW 264.7 LC50
# Method: as §2, §3
# [12] = MTT cytotoxicity assay, normal cells; format: cell-based; conditions: monkey
# Method: as §2, §3
# [13] = Ferric reducing antioxidant power (FRAP) assay; conditions: mean ± SD of three experiments
# Method: The antioxidant activity by the ferric reducing antioxidant power (FRAP) was assessed according to the method previously described with slight modifications.
# [14] = tested on: Vero monkey kidney cells; assay: MTT cytotoxicity assay, normal cells; format: cell-based; conditions: normal Vero cells, MTT, mean ± SD
# Method: as §2, §3
DPPH (IC50) [1],ABTS (IC50) [2],MIC [4],MIC [5],MIC [6],MIC ([7]; Salmonella typhimurium),MIC [8],MIC [9],SMILES,MIC [3],CC50 [10],CC50 [11],CC50 [12],MIC [7],FRAP [13],"CC50 ([12]; normal Vero cells, MTT, mean ± SD, read-out: Vero LC50)",Vero LC50 [14]
"3.44 ± 1.9^a,f µg/mL","4.15 ± 1.21^d,e µg/mL",–,–,–,–,–,–,"O=C1O[C@H]([C@@H](O)CO)C(O)=C1O [Ascorbic acid, reference compound]",–,–,–,–,–,–,–,–
– (– 100 µg/mL),– (– 100 µg/mL),> 100 µg/mL,25 µg/mL,25 µg/mL,100 µg/mL,> 100 µg/mL,> 100 µg/mL,"COC(=O)/C=C(/C)CC[C@]1(C)[C@H]2CCC=C(C(=O)O)[C@]2(C)CC[C@@H]1C [Compound 4, (8S)-kolavic acid 15-methyl ester]",–,49.8 ± 3.03 µg/mL,52.3 ± 1.3 µg/mL,47.5 ± 0.63 µg/mL,–,1.93 ± 0.14^a µmol FeSO4/g,–,–
– (– 100 µg/mL),– (– 100 µg/mL),> 100 µg/mL,> 100 µg/mL,> 100 µg/mL,> 100 µg/mL,> 100 µg/mL,> 100 µg/mL,"C[C@@H]1CC[C@@]2(C)C(C(=O)O)=CCC[C@@H]2[C@@]1(C)CC(=O)O [Compound 5, 13,14,15,16-tetranor-3-clerodene-12,18-dioic acid]",–,21.8 ± 1.11 µg/mL,16.1 ± 1 µg/mL,41.9 ± 1.85 µg/mL,–,5.09 ± 0.40^c µmol FeSO4/g,–,–
0.48 ± 0.02^c µg/mL,2.53 ± 0.49^d µg/mL,> 100 µg/mL,50 µg/mL,50 µg/mL,25 µg/mL,> 100 µg/mL,> 100 µg/mL,"COC(=O)c1cc(O)c(O)c(O)c1 [Compound 6, methyl gallate]",–,75 ± 1.68 µg/mL,36.9 ± 1.27 µg/mL,30.6 ± 3.09 µg/mL,–,103.98 ± 13.70^d µmol FeSO4/g,–,–
"1.12 ± 0.10^c,d µg/mL",4.13 ± 0.10^e µg/mL,> 100 µg/mL,12.5 µg/mL,25 µg/mL,1.56 µg/mL,12.5 µg/mL,25 µg/mL,"COc1c(O)c(O)cc2c1COc1c-2oc2cc(O)cc(O)c2c1=O [Compound 7, entadanin]",–,84.3 ± 3.3 µg/mL,19.1 ± 0.25 µg/mL,55.65 ± 0.3 µg/mL,–,"72.41 ± 2.02^b,e µmol FeSO4/g",–,–
– (– 100 µg/mL),– (– 100 µg/mL),> 100 µg/mL,> 100 µg/mL,> 100 µg/mL,> 100 µg/mL,> 100 µg/mL,> 100 µg/mL,"O=C(CCCCCCCCCCCCCCCCCCCCCCCCC(=O)OC[C@@H](O)CO)OC[C@@H](O)CO [Compound 8, bis-[(S)-(2,3-dihydroxypropyl)] hexacosanedioate]",–,65 ± 6.88 µg/mL,86.5 ± 4.61 µg/mL,80.5 ± 4.83 µg/mL,–,22.98 ± 4.29^f µmol FeSO4/g,–,–
–,–,–,–,–,–,–,–,"COc1cccc2c1C(=O)c1c(O)c3c(c(O)c1C2=O)C[C@@](O)(C(=O)CO)C[C@@H]3O[C@H]1C[C@H](N)[C@H](O)[C@H](C)O1 [Doxorubicin, reference compound]",–,> 100 µg/mL,0.5 µg/mL,–,–,–,–,9.35 ± 0.66^h µg/mL
–,–,0.25 µg/mL,0.5 µg/mL,0.5 µg/mL,2 µg/mL,1 µg/mL,0.25 µg/mL,"CNC(C)C1CCC(N)C(OC2C(N)CC(N)C(OC3OCC(C)(O)C(NC)C3O)C2O)O1 (centres unmarked) [Gentamicin, reference compound]",–,–,–,–,–,–,–,–
–,–,–,–,–,–,–,–,"COc1ccc(C[C@H](N)C(=O)N[C@H]2[C@@H](O)[C@H](n3cnc4c(N(C)C)ncnc43)O[C@@H]2CO)cc1 [Puromycin, reference compound]",–,0.4 ± 0.02 µg/mL,1.15 ± 0.17 µg/mL,–,–,–,–,5.32 ± 0.90^i µg/mL
8.71 ± 2.03^e µg/mL,"10.38 ± 2.4^a,f µg/mL",–,–,–,–,–,–,"Cc1c(C)c2c(c(C)c1O)CCC(C)(C(=O)O)O2 (centres unmarked) [Trolox, reference compound]",–,–,–,–,–,–,–,–

SMILES,DPPH (IC50) [1],ABTS (IC50) [2],MIC [4],MIC [5],MIC [6],MIC ([7]; Salmonella typhimurium),MIC [8],MIC [9],MIC [3],CC50 [10],CC50 [11],CC50 [12],MIC [7],FRAP [13],"CC50 ([12]; normal Vero cells, MTT, mean ± SD, read-out: Vero LC50)",Vero LC50 [14]
"C[C@H]1[C@H](C)CC[C@]2(C(=O)O)CC[C@]3(C)C(=CC[C@@H]4[C@@]5(C)CC[C@H](O)C(C)(C)[C@@H]5CC[C@]43C)[C@H]12 [Compound 1, ursolic acid]",–,–,> 100 µg/mL,12.5 µg/mL,6.25 µg/mL,100 µg/mL,> 100 µg/mL,> 100 µg/mL,4 µg/mL,9.62 ± 0.59 µg/mL,4.56 ± 0.02 µg/mL,22.4 ± 2.48 µg/mL,–,–,–,–
"C[C@@H]1O[C@@H](Oc2c(-c3ccc(O)c(O)c3)oc3cc(O)cc(O)c3c2=O)[C@H](O)[C@H](O)[C@H]1O [Compound 2, quercetin-3-O-α-L-rhamnoside]",0.9 ± 0.06^b µg/mL,3.53 ± 0.39^b µg/mL,25 µg/mL,12.5 µg/mL,12.5 µg/mL,–,50 µg/mL,50 µg/mL,–,> 100 µg/mL,16.4 ± 0.2 µg/mL,–,3.12 µg/mL,76.01 ± 1.10^b µmol FeSO4/g,44.8 ± 2.83 µg/mL,–

# Reference: PMC5339975, “Cytotoxicity, antimicrobial and antioxidant activity of eight compounds isolated from Entada abyssinica (Fabaceae)” (BMC Research Notes, 2017)
